These results are taken from patent publication US8399417B2, “Food” (Ajinomoto Co., Inc., priority 2007, dated 2013).

For assay [1], the target named is T1, human calcium receptor (Homo sapiens, UniProt P41180).
T1 construct: expressed in transfected cells; host or cells: Xenopus laevis oocytes injected with cRNA; the gene was PCR-cloned from human kidney cDNA (Clontech) into pBR322
T1 sequence (P41180 20-1078): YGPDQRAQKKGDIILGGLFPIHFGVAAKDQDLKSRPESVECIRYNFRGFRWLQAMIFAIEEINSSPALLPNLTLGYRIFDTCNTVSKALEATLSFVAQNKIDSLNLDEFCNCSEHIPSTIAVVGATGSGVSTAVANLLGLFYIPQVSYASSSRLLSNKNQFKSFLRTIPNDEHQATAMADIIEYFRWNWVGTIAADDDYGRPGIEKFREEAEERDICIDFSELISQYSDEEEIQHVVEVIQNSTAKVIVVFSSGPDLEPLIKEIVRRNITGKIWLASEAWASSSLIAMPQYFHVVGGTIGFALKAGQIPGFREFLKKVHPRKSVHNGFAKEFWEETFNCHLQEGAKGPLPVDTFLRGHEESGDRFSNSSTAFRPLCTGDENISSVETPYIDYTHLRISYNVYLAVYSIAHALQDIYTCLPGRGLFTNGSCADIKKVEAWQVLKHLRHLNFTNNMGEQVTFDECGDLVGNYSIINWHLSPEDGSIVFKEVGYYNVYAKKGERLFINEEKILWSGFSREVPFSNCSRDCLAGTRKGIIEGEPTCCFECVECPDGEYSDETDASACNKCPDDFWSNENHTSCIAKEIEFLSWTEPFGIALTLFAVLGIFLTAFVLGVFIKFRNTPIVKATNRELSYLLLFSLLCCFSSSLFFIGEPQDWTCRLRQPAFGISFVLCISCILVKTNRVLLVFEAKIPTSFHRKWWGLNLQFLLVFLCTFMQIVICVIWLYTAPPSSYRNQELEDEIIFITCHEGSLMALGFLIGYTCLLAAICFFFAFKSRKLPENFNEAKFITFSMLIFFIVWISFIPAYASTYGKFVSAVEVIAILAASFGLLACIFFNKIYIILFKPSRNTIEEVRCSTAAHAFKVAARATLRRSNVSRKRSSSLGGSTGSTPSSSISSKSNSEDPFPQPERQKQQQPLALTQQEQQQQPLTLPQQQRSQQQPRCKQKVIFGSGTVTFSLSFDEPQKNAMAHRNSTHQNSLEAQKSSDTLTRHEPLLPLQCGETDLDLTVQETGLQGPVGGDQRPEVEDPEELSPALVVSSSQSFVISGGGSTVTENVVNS
As to the kind of experiment: Calcium receptor-activating effect: Ca ion concentration-dependent Cl ionic current in Xenopus laevis oocyte expression system. The settings on record: for Activity (lowest concentration at which current was detected): peptide added at 1,000 to 0.1 μM to potential-clamped oocytes, Table 1. Type of assay: cell-based. Here is the method: For evaluation of the calcium receptor-activating effect, a Ca ion concentration-dependent Cl ionic current measuring method using a Xenopus laevis oocyte expression system was used. If each activator is added to Xenopus laevis oocytes expressing the calcium receptor, intracellular Ca ions increase. Then, the Ca ion concentration-dependent Cl channel opens, and the intracellular current value changes as an ionic current. By measuring the change in the intracellular current value, whether the calcium receptor-activating effect is present or not can be determined.
Specifically, the abdomen of Xenopus laevis was opened, and an egg batch was taken out and then treated with a 1% collagenase solution at 20° C. for 2 hours to obtain individual oocytes. Into the oocytes, 50 nl of 1 μg/μl receptor cRNA or 50 nl of sterilized water per oocyte were injected by using a micro glass capillary, and the oocytes were cultured at 18° C. for 2 to 3 days. For the culture, a solution obtained by adding 2 mM pyruvic acid, 10 U/ml penicillin, and 10 μg/ml streptomycin to the solution in Reference Example 2 was used. After the culture, a test solution was added to the oocytes injected with cRNA or sterilized water. Electrophysiological measurement was performed by using an amplifier Geneclamp 500 (manufactured by Axon) and recording software AxoScope 9.0 (manufactured by Axon). The oocytes were membrane potential-clamped at −70 mV by the double electrode potential clamp method, and the intracellular current via the Ca ion concentration-dependent Cl ion was measured. The maximum value of the intracellular current was defined as the response current value.
The calcium receptor-activating effect of L-amino acids was evaluated by using the method described in Reference Example 6. That is, oocytes injected with cRNA of the calcium receptor or sterilized water were prepared, and membrane potential-clamped at −70 mV by the double electrode potential clamp method. To the potential-clamped oocytes, alanine (10 mM), arginine (10 mM), asparagine (10 mM), aspartic acid (10 mM), cysteine (10 mM), glutamine (10 mM), glutamic acid (10 mM), glycine (10 mM), histidine (10 mM), isoleucine (10 mM), leucine (10 mM), lysine (10 mM), methionine (10 mM), phenylalanine (10 mM), proline (10 mM), serine (10 mM), threonine (10 mM), tryptophan (10 mM), tyrosine (10 mM), valine (10 mM), ornithine (10 mM), taurine (10 mM), or hydroxyproline (10 mM) was added, and Ca ion concentration-dependent Cl response current was measured. […] 25, 2000, 97(9): 4814-9.
The calcium receptor-activating effect of D-cysteine was evaluated by using the method described in Reference Example 6. That is, oocytes injected with cRNA of the calcium receptor or sterilized water were prepared, and membrane potential-clamped at −70 mV by the double electrode potential clamp method. To the potential-clamped oocytes, D-cysteine (10 mM), L-cysteine (10 mM), D-tryptophan (10 mM), or L-tryptophan (10 mM) was added, and Ca ion concentration-dependent Cl response current was measured.
The calcium receptor-activating effect of a peptide was evaluated by using the method described in Reference Example 6. That is, oocytes injected with cRNA of the calcium receptor or sterilized water were prepared, and membrane potential-clamped at −70 mV by the double electrode potential clamp method.
The calcium receptor-activating effects of peptides were evaluated in the same manner as that of Reference Example 10. Each of the peptides shown in Table 1 was added to potential-clamped oocytes at 1,000 μM, 300 μM, 100 μM, 30 μM, 10 μM, 3 μM, 1 μM, 0.3 μM, and 0.1 μM, and Ca ion concentration-dependent Cl response current was measured.

Assay [2] is described as follows: Fat-like richness and smoothness imparted to low-fat yogurt, quantitative sensory evaluation test. Type of assay: in vivo, human. The note with it: Table 10. On the procedure:
The quantitative sensory evaluation test was performed as follows. Each of γ-Glu-Val-Gly and cinacalcet was mixed with commercially-available low-fat yogurt (non-fat milk solids content: 10.0%, milk fat content: 1.0%) at a concentration of 0.00001 to 1 g/dl, and the intensity of imparting fat-like richness was measured.
It should be noted that after each sample was dissolved in low-fat yogurt, and a sample, the pH of which was lowered, was adjusted with NaOH so that the pH might be ±0.2 with respect to the pH of the […] free of a sample.
The sensory score for fat-like richness and smoothness was defined as follows: control (free of sample): 0 point; strong: 3 points; and very strong: 5 points. Then, the test was performed with n=12.

Starred links: 1 amine or outer side, 2 acyl side, 3 side chain; linkers in the order of their positions; H or OH if unused. Non-standard residues stand in square brackets, D forms with d. No end group written: not given here. γGlu = O=C(O)[C@H](CCC(=O)[*:2])N[*:1]; Abu = CC[C@H](N)C(=O)O

For [γGlu]-[Abu]-Gly, the “Activity (lowest concentration at which current was detected)” value in assay [1] was 3 µM.

On to `N[C@@H](CCC(=O)N[C@@H](CS)C(=O)NCC(=O)O)C(=O)O` [γ-Glu-Cys-Gly, reference compound], for which the “calcium receptor-activating effect (Cl response current)” value in assay [1] (peptide 50 μM, FIG. 4) was “definite calcium receptor-activating effect”.

On to [γGlu]-Val-Gly, for which the Fat-like richness in assay [2] (0.001 g/dl in low-fat yogurt (milk fat 1.0%), n=12, control 0, strong 3, very strong 5 points) is reported as 4.5 points. Further, the Taste profile result in assay [2] (0.001 g/dl in low-fat yogurt) is “Taste is enhanced in middle”. This molecule registered a Smoothness in assay [2] (0.001 g/dl in low-fat yogurt, n=12, control 0, strong 3, very strong 5 points) of 4.0 points. Further, the “Activity (lowest concentration at which current was detected)” value in assay [1] amounted to 0.1 µM.
